According to ChEMBL document CHEMBL2029209, “Structure-based design of 2,6,7-trisubstituted-7H-pyrrolo[2,3-d]pyrimidines as Aurora kinases inhibitors” (Bioorg Med Chem Lett, 2012):

Columns and labels:
Aurora kinase A = biological target: T1, Aurora kinase A (Homo sapiens, UniProt O14965); experiment: Inhibition of aurora A kinase
T1 sequence (O14965 whole entry): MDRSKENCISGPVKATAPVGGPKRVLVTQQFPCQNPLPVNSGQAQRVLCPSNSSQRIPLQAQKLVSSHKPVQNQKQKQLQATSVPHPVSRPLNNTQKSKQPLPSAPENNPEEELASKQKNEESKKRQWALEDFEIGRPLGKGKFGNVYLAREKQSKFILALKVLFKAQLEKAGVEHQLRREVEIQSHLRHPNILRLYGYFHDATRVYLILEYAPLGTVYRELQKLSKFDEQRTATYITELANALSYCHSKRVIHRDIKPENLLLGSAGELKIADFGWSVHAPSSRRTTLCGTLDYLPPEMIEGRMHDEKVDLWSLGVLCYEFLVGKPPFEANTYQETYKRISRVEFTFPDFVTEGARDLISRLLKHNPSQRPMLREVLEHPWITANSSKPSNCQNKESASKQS

[1] = biological target: Cyclin-dependent kinase 1 (Homo sapiens, UniProt P06493); experiment: Inhibition of CDK1
HCT-116 [2] = experiment: Induction of cell cycle arrest in human HCT116 cells assessed as minimum concentration required for G2/M versus G1 peak ratio over 2; assay type: functional
HCT-116 [3] = experiment: Antiproliferative activity against human HCT116 cells; assay type: functional, cell-based
Aurora kinase B = Aurora kinase B (Homo sapiens, UniProt Q96GD4); experiment: Inhibition of aurora B kinase
Chain of Aurora kinase B (Q96GD4 whole entry): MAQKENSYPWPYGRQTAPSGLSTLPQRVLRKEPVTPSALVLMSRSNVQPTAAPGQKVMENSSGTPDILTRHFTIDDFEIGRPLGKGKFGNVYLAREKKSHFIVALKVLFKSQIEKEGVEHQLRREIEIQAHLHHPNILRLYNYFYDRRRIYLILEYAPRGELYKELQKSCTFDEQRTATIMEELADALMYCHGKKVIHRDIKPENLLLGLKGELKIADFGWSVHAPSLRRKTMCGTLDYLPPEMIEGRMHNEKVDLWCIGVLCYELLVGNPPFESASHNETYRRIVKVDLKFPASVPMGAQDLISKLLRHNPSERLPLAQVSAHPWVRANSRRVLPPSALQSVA

Chain of Cyclin-dependent kinase 1 (P06493 whole entry): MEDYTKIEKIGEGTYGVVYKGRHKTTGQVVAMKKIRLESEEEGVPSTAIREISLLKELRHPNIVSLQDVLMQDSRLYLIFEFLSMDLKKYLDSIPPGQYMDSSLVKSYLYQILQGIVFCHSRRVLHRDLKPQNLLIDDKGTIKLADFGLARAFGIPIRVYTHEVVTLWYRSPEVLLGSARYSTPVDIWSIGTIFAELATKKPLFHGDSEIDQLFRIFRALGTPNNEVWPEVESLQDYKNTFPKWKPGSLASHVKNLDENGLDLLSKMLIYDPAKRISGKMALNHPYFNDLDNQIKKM

SMILES | IC50 (Aurora kinase A) | IC50 [1] | IC50 (HCT-116 [3]) | IC50 (Aurora kinase B) | Activity (HCT-116 [2])
Cc1c(-c2cc3cnc(Nc4cc(C(=O)N5CCN(C)CC5)n(C)c4)nc3n2C2CCCC2)cnn1C | 2 nM | 330 nM | 110 nM | 4 nM | 0.03 µM
CN1CCN(C(=O)c2cc(Nc3ncc4cc(-c5cnn(Cc6ccccc6)c5)n(C5CCCC5)c4n3)cn2C)CC1 | 2 nM | 2000 nM | 90 nM | 4 nM | 0.1 µM
CN1CCN(C(=O)c2cc(Nc3ncc4cc(-c5cnco5)n(C5CCCC5)c4n3)cn2C)CC1 | 2 nM | 28 nM | 60 nM | 4 nM | 0.03 µM
CN1CCN(C(=O)c2cc(Nc3ncc4cc(C(N)=O)n(C5CCCC5)c4n3)cn2C)CC1 |  | 500 nM | 70 nM | 11 nM | 0.1 µM
CN1CCN(C(=O)c2cc(Nc3ncc4cc(/C=N/O)n(C5CCCC5)c4n3)cn2C)CC1 | 11 nM | 3 nM | 4 nM | 30 nM | 0.002 µM
CNCc1cc2cnc(Nc3cc(C(=O)N4CCN(C)CC4)n(C)c3)nc2n1C1CCCC1 | 40 nM | 700 nM | 210 nM | 60 nM | 0.3 µM
CC(C)CCn1cc(-c2cc3cnc(Nc4cc(C(=O)N5CCN(C)CC5)n(C)c4)nc3n2C2CCCC2)cn1 | 2 nM | 1400 nM | 110 nM | 4 nM | 0.1 µM

Further compounds by falling IC50 [1], results first:

IC50 (Aurora kinase A) | IC50 [1] | IC50 (HCT-116 [3]) | IC50 (Aurora kinase B) | SMILES | Activity (HCT-116 [2])
350 nM | 10000 nM | 12300 nM | 1000 nM | CN1CCN(C(=O)c2cc(Nc3ncc4cc(C(=O)O)n(C5CCCC5)c4n3)cn2C)CC1 | 10 µM
 | 1700 nM | 590 nM | 4 nM | CN1CCN(C(=O)c2cc(Nc3ncc4cc(-c5ccnn5C)n(C5CCCC5)c4n3)cn2C)CC1 | 1 µM
20 nM | 1300 nM | 130 nM | 40 nM | CN1CCN(C(=O)c2cc(Nc3ncc4cc(CO)n(C5CCCC5)c4n3)cn2C)CC1 | 0.1 µM
11 nM | 1100 nM | 80 nM | 30 nM | CC(O)c1cc2cnc(Nc3cc(C(=O)N4CCN(C)CC4)n(C)c3)nc2n1C1CCCC1 (configuration not stated) | 0.1 µM
38 nM | 240 nM | 290 nM | 18 nM | CN1CCN(C(=O)c2cc(Nc3ncc4ccn(C5CCCC5)c4n3)cn2C)CC1 | 0.3 µM
2 nM | 200 nM | 5 nM | 5 nM | CN1CCN(C(=O)c2cc(Nc3ncc4cc(-c5cncn5C)n(C5CCCC5)c4n3)cn2C)CC1 | 0.003 µM
2 nM | 180 nM |  | 4 nM | CN1CCN(C(=O)c2cc(Nc3ncc4cc(-c5cnn(C)c5)n(C5CCCC5)c4n3)cn2C)CC1 | 0.03 µM
7.5 nM | 6 nM | 40 nM | 4 nM | CN1CCN(C(=O)c2cc(Nc3ncc4cc(C#N)n(C5CCCC5)c4n3)cn2C)CC1 | 0.065 µM
